Measured values from patent US8148431B2, “Osteogenesis promoter containing β-cryptoxanthin as the active ingredient” (Kemin Health, L.C., priority 2002, dated 2012).
Marks after values point to notes of the source that are not given here.

Key:
[1] = test system: rats, femoral metaphysis tissue; test: Oral administration to rats: bone calcium level in metaphysis tissue; format: in vivo, Wistar male rats; settings: for Bone calcium level: metaphysis tissue
Procedure: (§1) Bone calcium level in the bone tissue was determined. After the culture in the incubator, the tissue pieces were washed with 0.25 M sucrose solution and dried and then the bone was weighed. Then concentrated nitric acid was added to the tissue pieces. After the incineration at 120° C. for 12 hours, the bone calcium level was determined with an atomic absorption photometer (“Perkin-Elmer 303” of Perkin-Elmer Co.).
(§2) A solution of β-cryptoxanthin in corn oil having one of three kinds of concentration (10, 25 and 50 μg/ml corn oil) was orally administered to rats (Wistar male rats; 4 to 5 weeks old) in an amount/100 g body weight with a probe once a day for 7 days. The rats were sacrificed 24 hours after the final administration. The femurs were excised. The muscles, etc. were taken out and each femur was divided into diaphysis and metaphysis to determine the bone components.
(§3) Tests were conducted to examine whether the bone components are increased by the oral administration of β-cryptoxanthin to rats or not. β-cryptoxanthin was administered for 7 days (10, 25 or 50 μg/100 g body weight/day) and then calcium level in the bone tissue, determination of alkaline phosphatase activity (enzyme for the acceleration of the calcification of bones) and the amount of deoxyribonucleic acid (DNA: index of the number of the cells in the bone tissue) were determined by the same methods as those in Example 1. In each test group, the determination was conducted 6 times and the results were represented by the average value and the standard error. The significant difference was determined by Student's t-test. The result was compared with that of the control. When P value was not higher than 0.01 (*) as compared with the control, the results were statistically significant.

[2] = test system: metaphysis tissue of the femur (cancellous bone); test: Bone DNA level in cultured femoral metaphysis tissue pieces; format: cell-based, Wistar male rats; settings: for Bone DNA level: metaphysis tissue, mean ± SE
Procedure: (§4) The femurs were extracted from rats (Wistar male rats; 4 to 5 weeks old) (purchased from Japan SLC Co., Ltd. and fed with solid Oriental yeast (MF)) under anesthesia with ether under a germfree condition. The femurs were each washed with 0.25 M sucrose solution, and then divided into the diaphysis (cortical bone) and metaphysis (cancellous bone). The bone tissue pieces were cultured in a culture medium (Dulbecco's modified culture medium containing 5% of glucose; serum-free medium) containing. β-cryptoxanthin, etc. at […] in an incubator filled with 5% CO2-95% air for 48 hours. β-cryptoxanthin used was “β-cryptoxanthin” of Extrasynthase Co., cycloheximide used was “Cycloheximide” of Sigma Co. Ltd., β-carotene was “β-carotene” of Sigma ? , xanthine was “Xanthine” of Sigma Co, Ltd., parathormone was “Parathormone” of Sigma Co. Ltd. and prostaglandin E2 was “Prostaglandin E2” of Sigma Co. Ltd. In the control, only the culture medium was used without β-cryptoxanthin or the like.
(§5) DNA level was determined as an index of the number of cells in the bone tissue. After the culture in an incubator, the tissue pieces were washed with 0.25 M sucrose solution and then the wet weight of them was determined. They were pulverized in 4 ml of 0.1 N NaOH. After the osmosis at 4° C. for 24 hours, the liquid mixture was centrifuged. The supernatant was taken as the sample and determined by a method of Ceriotti et al. (J. Biol. Chem., 241; 34-77, 1951). Namely, 1 ml of concentrated hydrochloric acid and 1 ml of 0.04% indole solution were added to 2 ml of the sample and then the resultant mixture was heated to 100° C. in boiling water. After quenching followed by the extraction with 4 ml of chloroform, the chloroform layer was taken to determine bone DNA level with a spectrophotometer (490 nm).
(§6) The bone component-increasing effect of β-cryptoxanthin was examined. The diaphysis and metaphysis tissue of the femur was cultured in the above-described culture medium containing β-cryptoxanthin (10^−5 to 10^−5 M) for 48 hours. Calcium level in the bone tissue, alkaline phosphatase activity (enzyme for accelerating the bone calcification) and the amount of deoxyribonucleic acid (DNA; index of number of cells in the bone tissue) were determined by the same methods as in Example 1. In each test group, the determination vas conducted 6 to 8 times and the results were represented by the average value and the standard error. The significant difference was determined by Student's t-test. The result was compared with that of the control. When P value was not higher than 0.01 (**) or not higher than 0.05 (*), the results were statistically significant.

[3] = test system: metaphysis tissue of the femur (cancellous bone); test: Bone calcium level in cultured femoral metaphysis tissue pieces; format: cell-based, Wistar male rats; settings: for Bone calcium level: metaphysis tissue, mean ± SE
Procedure: as §4, §1
as §6, with “The diaphysis and metaphysis tissue of the femur was cultured in the above-described culture medium containing β-cryptoxanthin (10^−5 to 10^−5 M) for 48 hours.” left out

[4] = test system: rats, femoral diaphysis tissue; test: Oral administration to rats: bone DNA level in diaphysis tissue; format: in vivo, Wistar male rats; settings: for Bone DNA level: diaphysis tissue
Procedure: as §5, §2, §3

[5] = oral 10 μg/100 g body weight/day for 7 days
[6] = oral 25 μg/100 g body weight/day for 7 days
[7] = oral 50 μg/100 g body weight/day for 7 days
[8] = Table 2 (protein synthesis inhibitor experiment), 10^−6 M (each agent), n=6
[9] = β-cryptoxanthin 10^−6 M with cycloheximide

## CC1=C(/C=C/C(C)=C/C=C/C(C)=C/C=C/C=C(C)/C=C/C=C(C)/C=C/C2=C(C)C[C@@H](O)CC2(C)C)C(C)(C)CCC1 [β-cryptoxanthin]
[1]; 10, 25 or 50 μg/100 g body weight/day, 7 days
  Effect on calcium level in the metaphysis tissue after oral administration (in words): significantly increased
[1]; [5]
  Bone calcium level: 201.5 ± 5.60* mg/g dry weight
[1]; [6]
  Bone calcium level: 200.3 ± 3.90* mg/g dry weight
[1]; [7]
  Bone calcium level: 205.9 ± 4.10* mg/g dry weight
[2]; 10^−7 to 10^−5 M, 48 h culture, vs control
  Effect on DNA level in the metaphysis tissue (in words): significantly increased
[2]; [8]
  Bone DNA level: 5.401 ± 0.188* mg/g bone wet weight
[2]; 10^−5 M, 48 h culture
  Bone DNA level: 5.584 ± 0.530** mg/g bone wet weight
[2]; 10^−6 M, 48 h culture
  Bone DNA level: 5.359 ± 0.207** mg/g bone wet weight
[2]; 10^−7 M, 48 h culture
  Bone DNA level: 4.170 ± 0.057** mg/g bone wet weight
[2]; 10^−8 M, 48 h culture
  Bone DNA level: 3.276 ± 0.207 mg/g bone wet weight
[2]; [9]
  Bone DNA level in metaphysis tissue increased by β-cryptoxanthin: change in the presence of cycloheximide (in words): significantly lowered
[3]; 10^−8 to 10^−5 M, 48 h culture, vs control
  Effect on calcium level in the metaphysis tissue (in words): significant increase
[3]; [8]
  Bone calcium level: 220.0 ± 3.25* mg/g dry weight
[3]; 10^−5 M, 48 h culture
  Bone calcium level: 213.5 ± 5.59** mg/g dry weight
[3]; 10^−6 M, 48 h culture
  Bone calcium level: 216.8 ± 2.84** mg/g dry weight
[3]; 10^−7 M, 48 h culture
  Bone calcium level: 223.6 ± 9.27** mg/g dry weight
[3]; 10^−8 M, 48 h culture
  Bone calcium level: 204.7 ± 6.40** mg/g dry weight
[3]; [9]
  Calcium level in metaphysis tissue increased by β-cryptoxanthin: change in the presence of cycloheximide (in words): significantly lowered
[4]; 25 or 50 μg/100 g body weight/day, 7 days
  Effect on DNA in the bone tissue, diaphysis, after oral administration (in words): significantly increased
[4]; [5]
  Bone DNA level: 1.95 ± 0.18 mg/g bone wet weight
[4]; [6]
  Bone DNA level: 3.01 ± 0.23* mg/g bone wet weight
[4]; [7]
  Bone DNA level: 2.53 ± 0.20* mg/g bone wet weight
